Test results as given in patent US9844226B2 (AJINOMOTO CO., INC., priority 2009, dated 2017).
Several values for one entry are separate records, joined by “and”; a condition that tells them apart may be missing. Identical values can stand only once. Entries after “also recorded” stand apart in the source; their conditions may differ. Starred links: 1 amine or outer side, 2 acyl side, 3 side chain; linkers in the order of their positions; H or OH if unused. Non-standard residues stand in square brackets, D forms with d. No end group written: not given here. γGlu = O=C(O)[C@H](CCC(=O)[*:2])N[*:1]

Experiments:
Type in all cases: in vivo, human
panelists [1] = experiment: Quantitative sensory evaluation test of kokumi-imparting activity; settings: for Strength of Kokumi Impartment, Initial Taste / Strength of Kokumi Impartment, Middle/After Taste: scale -5~0~5, n=4; for Kokumi-imparting strength compared with γ-Glu-Val (in words): in vivo
Protocol: This quantitative sensory evaluation test was carried out as follows: The strength of the kokumi-imparting activity was measured for the cases where the test compound was mixed at concentrations of 0.001 to 0.5 g/dL with distilled water containing sodium glutamate (0.05 g/dL), inosine monophosphate (0.05 g/dL), and sodium chloride (0.5 g/dL). After the test compound was dissolved, samples more acidic than a control with no added test compound were adjusted, before further use, with NaOH to have a pH in a range of ±0.2 from the pH of the control with no added test compound. The sensory evaluation scores were as follows: control: 0 points; strong: 3 points; very strong: 5 points. The sensory evaluation was carried out using n (the number of panelists)=4. Moreover, to clarify the scale, the initial taste and the middle/after taste of γ-[…] at 0.001 g/dL were both set as 3.0 points. The term “middle/after taste” refers to the taste perceived during the period which includes the middle taste and the after taste. For the scoring, a linear scale method was employed. In this method, the score was marked as a position on a straight line showing positions for scores ranging from -5 0 5.

panelists [2] = experiment: Strength of kokumi-imparting activity by Point of Subjective Equality (PSE), limit-determining technique
Protocol: The intensity of the kokumi-imparting activity of γ-Glu-Abu was determined by Point of Subjective Equality (PSE) according to the limit-determining technique (“Statistical Sensory Examination techniques”, written by SATO Shin, published by Japan Federation of Science and Technology). The sensory evaluation was carried out as follows: Distilled water containing sodium glutamate (0.05 g/dL), inosine monophosphate (0.05 g/dL) and sodium chloride (0.5 g/dL) was used as the solution for the sensory evaluation. […] To determine the concentration of γ-Glu-Val at which the strength of taste is the same as that of a solution obtained by causing the solution for the sensory evaluation to contain 0.005 g/dL of γ-[…] solutions were prepared with a concentration that varied on a 50% logarithmic scale by using a solution obtained by causing the solution for the sensory evaluation, to contain 0.01 g/dL of γ-Glu-Val as a standard. The concentrations of γ-Glu-Val was set to 7 values ranging from 0.0030 to 0.0337 g/dL. After the test substance was dissolved, samples more acidic than the control with no added test substance were adjusted, before further use, with NaOH to have a pH in a range of ±0.2 as compared to the pH of the control with no added test substance. The solutions were presented to eighteen panelists in ascending order of the γ-Glu-Val concentration. The evaluation was carried out until each panelist perceived that the strength was higher than that of the 0.005 g/dL γ-Glu-Abu solution. After a certain interval, the solutions were next presented to the eighteen panelists in descending order of the γ-Glu-Val concentration. The evaluation was carried out until each panelist perceived that the strength was lower than that of the 0.005 g/dL γ-Glu-Abu solution. In this sensory evaluation, the panelists were experienced in the development of food products. When the lower and upper threshold values were the same, there was no γ-Glu-Val concentration at which the difference between the perception that the strength was lower, and the perception that the strength was higher, was uncertain. […] Each confidence threshold (average) is an average of the lower thresholds and the upper thresholds. The point of subjective equality (PSE) of γ-Glu-Val to 50 ppm (0.0050 g/dL) of γ-Glu-Abu is expressed as follows: (the sum of the confidence threshold of the lower thresholds and that of the upper threshold value)/2.

panelists [3] = experiment: Quantitative sensory evaluation test of salty taste enhancement
Protocol: After the test compound was dissolved, samples more acidic than a control containing no added test compound were adjusted, before further use, with NaOH to have a pH in a range of ±0.2 from the pH of the control to which no test compound was added.
The sensory evaluation scores were as follows, the control to which no test compound was added, i.e. a 0.5 g/dL sodium chloride solution: 0 points; a 0.75 g/dL sodium chloride solution: 5 points. The sensory evaluation was conducted on a scale ranging from −5 to 0 to 5, with n=5. The “initial taste” refers to the taste perceived by each panelist from the start of eating the sample to 2 seconds thereafter, while the term “middle/after taste” refers to that perceived by each panelist from 2 seconds on and after eating the same, i.e. perceived during the period including both the middle taste and the after taste. For the scoring, a linear scale method was used. In this method, the score was marked as a position on a straight line showing positions for scores ranging from −5˜0˜5. The panelists were persons who were engaged in the development of seasonings for foods for one year or longer in total, and who were capable of determining that the difference in the potency between γ-Glu-Cys-Gly and γ-Glu-Val-Gly each added to a umami taste and salty taste solution was around 10 times, while confirming the ability of these persons at regular intervals.

[4] = 0.2 g/dL in water with MSG 0.05, IMP 0.05, NaCl 0.5 g/dL
[5] = 0.01 g/dL in water with MSG 0.05, IMP 0.05, NaCl 0.5 g/dL
[6] = γ-Glu-Val vs 50 ppm γ-Glu-Abu, individual panelists (Nos. 1-18), ascending order of presentation
[7] = γ-Glu-Val vs 50 ppm γ-Glu-Abu, individual panelists (Nos. 19-36), descending order of presentation
[8] = 0.002 g/dL in 0.5 g/dL NaCl, 0.5 g/dL NaCl = 0, 0.75 g/dL NaCl = 5, n=5

Compound: C[C@H](NC(=O)CC[C@H](N)C(=O)O)C(=O)O [γ-Glu-Ala, γ-L-Glu-L-Ala]
- Strength of Kokumi Impartment, Initial Taste (panelists [1]; [4]): 4.5 points
- Strength of Kokumi Impartment, Middle/After Taste (panelists [1]; [4]): 4.3 points
- Kokumi-imparting strength compared with γ-Glu-Val (in words) (panelists [1]): lower strength than γ-Glu-Val

Compound: N[C@@H](CCC(=O)N[C@@H](CS)C(=O)O)C(=O)O [γ-Glu-Cys, γ-L-Glu-L-Cys]
- Strength of Kokumi Impartment, Initial Taste (panelists [1]; [5]): 3.1 points
- Strength of Kokumi Impartment, Middle/After Taste (panelists [1]; [5]): 3.1 points
- Kokumi-imparting strength compared with γ-Glu-Val (in words) (panelists [1]): strong effect approximately the same as that of γ-Glu-Val

Compound: N[C@@H](CCC(=O)N[C@@H](CO)C(=O)O)C(=O)O [γ-Glu-Ser, γ-L-Glu-L-Ser]
- Strength of Kokumi Impartment, Initial Taste (panelists [1]; [4]): 3.6 points
- Strength of Kokumi Impartment, Middle/After Taste (panelists [1]; [4]): 3.0 points
- Kokumi-imparting strength compared with γ-Glu-Val (in words) (panelists [1]): lower strength than γ-Glu-Val

Compound: CC(C)[C@H](NC(=O)CC[C@H](N)C(=O)O)C(=O)O [γ-Glu-Val, γ-L-Glu-L-Val]
- PSE (point of subjective equality) of γ-Glu-Val to 50 ppm γ-Glu-Abu (panelists [2]; (lower + upper confidence threshold)/2): 121.9 ppm
- γ-Glu-Val concentration (PSE) with the same strength as 0.0050 g/dL γ-Glu-Abu, estimated from number of panelists (Table 4) (panelists [2]; estimated from Table 4): 0.0100 g/dL
- PSE calculated from upper and lower threshold concentrations of γ-Glu-Val (panelists [2]; vs 0.0050 g/dL γ-Glu-Abu): 0.0122 g/dL
- No. of Panelists whose evaluation was such that the difference between γ-Glu-Val and γ-Glu-Abu (0.0050 g/dL) was uncertain (panelists [2]; γ-Glu-Val 0.0030 g/dL): 0 No. of panelists
- No. of Panelists whose evaluation was such that γ-Glu-Val was weaker than γ-Glu-Abu (0.0050 g/dL) (panelists [2]; γ-Glu-Val 0.0030 g/dL): 36 No. of panelists
- No. of Panelists whose evaluation was such that γ-Glu-Val was stronger than γ-Glu-Abu (0.0050 g/dL) (panelists [2]; γ-Glu-Val 0.0030 g/dL, 18 panelists, ascending and descending): 0 No. of panelists
- No. of Panelists whose evaluation was such that the difference between γ-Glu-Val and γ-Glu-Abu (0.0050 g/dL) was uncertain (panelists [2]; γ-Glu-Val 0.0044 g/dL): 0 No. of panelists
- No. of Panelists whose evaluation was such that γ-Glu-Val was stronger than γ-Glu-Abu (0.0050 g/dL) (panelists [2]; γ-Glu-Val 0.0044 g/dL): 1 No. of panelists
- No. of Panelists whose evaluation was such that γ-Glu-Val was weaker than γ-Glu-Abu (0.0050 g/dL) (panelists [2]; γ-Glu-Val 0.0044 g/dL): 35 No. of panelists
- No. of Panelists whose evaluation was such that the difference between γ-Glu-Val and γ-Glu-Abu (0.0050 g/dL) was uncertain (panelists [2]; γ-Glu-Val 0.0067 g/dL): 13 No. of panelists
- No. of Panelists whose evaluation was such that γ-Glu-Val was stronger than γ-Glu-Abu (0.0050 g/dL) (panelists [2]; γ-Glu-Val 0.0067 g/dL): 3 No. of panelists
- No. of Panelists whose evaluation was such that γ-Glu-Val was weaker than γ-Glu-Abu (0.0050 g/dL) (panelists [2]; γ-Glu-Val 0.0067 g/dL): 20 No. of panelists
- No. of Panelists whose evaluation was such that the difference between γ-Glu-Val and γ-Glu-Abu (0.0050 g/dL) was uncertain (panelists [2]; γ-Glu-Val 0.0100 g/dL): 13 No. of panelists
- No. of Panelists whose evaluation was such that γ-Glu-Val was stronger than γ-Glu-Abu (0.0050 g/dL) (panelists [2]; γ-Glu-Val 0.0100 g/dL): 11 No. of panelists
- No. of Panelists whose evaluation was such that γ-Glu-Val was weaker than γ-Glu-Abu (0.0050 g/dL) (panelists [2]; γ-Glu-Val 0.0100 g/dL): 12 No. of panelists
- No. of Panelists whose evaluation was such that the difference between γ-Glu-Val and γ-Glu-Abu (0.0050 g/dL) was uncertain (panelists [2]; γ-Glu-Val 0.0150 g/dL): 6 No. of panelists
- No. of Panelists whose evaluation was such that γ-Glu-Val was stronger than γ-Glu-Abu (0.0050 g/dL) (panelists [2]; γ-Glu-Val 0.0150 g/dL): 25 No. of panelists
- No. of Panelists whose evaluation was such that γ-Glu-Val was weaker than γ-Glu-Abu (0.0050 g/dL) (panelists [2]; γ-Glu-Val 0.0150 g/dL): 5 No. of panelists
- No. of Panelists whose evaluation was such that the difference between γ-Glu-Val and γ-Glu-Abu (0.0050 g/dL) was uncertain (panelists [2]; γ-Glu-Val 0.0225 g/dL): 7 No. of panelists
- No. of Panelists whose evaluation was such that γ-Glu-Val was stronger than γ-Glu-Abu (0.0050 g/dL) (panelists [2]; γ-Glu-Val 0.0225 g/dL): 28 No. of panelists
- No. of Panelists whose evaluation was such that γ-Glu-Val was weaker than γ-Glu-Abu (0.0050 g/dL) (panelists [2]; γ-Glu-Val 0.0225 g/dL): 1 No. of panelists
- No. of Panelists whose evaluation was such that the difference between γ-Glu-Val and γ-Glu-Abu (0.0050 g/dL) was uncertain (panelists [2]; γ-Glu-Val 0.0337 g/dL): 0 No. of panelists
- No. of Panelists whose evaluation was such that γ-Glu-Val was stronger than γ-Glu-Abu (0.0050 g/dL) (panelists [2]; γ-Glu-Val 0.0337 g/dL): 36 No. of panelists
- No. of Panelists whose evaluation was such that γ-Glu-Val was weaker than γ-Glu-Abu (0.0050 g/dL) (panelists [2]; γ-Glu-Val 0.0337 g/dL): 0 No. of panelists
- Confidence Region (average), Lower Threshold (panelists [2]; γ-Glu-Val vs 50 ppm γ-Glu-Abu, average of the 36 lower thresholds): 94.5 ppm
- Confidence Region (average), Upper Threshold (panelists [2]; γ-Glu-Val vs 50 ppm γ-Glu-Abu, average of the 36 upper thresholds): 149.3 ppm
- Lower Threshold at which each panelist determined that the concentrations were the same (panelists [2]; [6]): 55.5 ppm and 125.0 ppm and 37.0 ppm and 83.5 ppm and 187.5 ppm
- Upper Threshold at which each panelist determined that the concentrations were the same (panelists [2]; [6]): 55.5 ppm and 125.0 ppm and 187.5 ppm and 37.0 ppm and 281.0 ppm and 83.5 ppm
- Lower Threshold at which each panelist determined that the concentrations were the same (panelists [2]; [7]): 125.0 ppm (3×) and 83.5 ppm (5×) and 187.5 ppm (3×) and 55.5 ppm (5×) and 56.0 ppm and 281.0 ppm
- Upper Threshold at which each panelist determined that the concentrations were the same (panelists [2]; [7]): 125.0 ppm (7×) and 281.0 ppm (5×) and 187.5 ppm (2×) and 83.5 ppm (4×)
- Sensory Evaluation Profile (kokumi) (panelists [1]; 0.01 g/dL): The after taste was extremely weak.
- Strength of Kokumi Impartment, Initial Taste (panelists [1]; [5]): 3.1 points
- Strength of Kokumi Impartment, Middle/After Taste (panelists [1]; [5]): 2.4 points

Compound: [γGlu]-Val-Gly
- Strength of Salty Taste Impartment, Initial Taste (panelists [3]; [8]): 0.8 points
- Strength of Salty Taste Impartment, Middle/After Taste (panelists [3]; [8]): 1.8 points
- Salty taste enhancement ability (in words) (panelists [3]; comparison of γ-Glu-Val-Gly and γ-Glu-Abu): higher taste-imparting strength than γ-Glu-Abu; also recorded: remarkably disturbs the balance of the salty taste
